Experimental data as given in paper PMC6364417, “Kinase inhibitor library screening identifies synergistic drug combinations effective in sensitive and resistant melanoma cells” (Journal of Experimental & Clinical Cancer Research : CR, 2019).

Experiments:
Assay in all cases: Kinase inhibitor library screening, PrestoBlue cell viability, 1 or 10 μM, 72 h
501Mel cells (parental) = details: 501Mel Parental, 72 h, in %
Outline: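 Each compound was applied to parental melanoma cells and to derivatives made resistant to Vemurafenib or Dabrafenib. After treatment, viability was read with PrestoBlue on a plate reader and expressed as % of untreated cells, with each line run at least in duplicate.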

[1] = test system: IGR37-XP cells (Vemurafenib-resistant); details: IGR37 XP, 72 h
[2] = test system: 501Mel-XP cells (Vemurafenib-resistant); details: 501Mel XP, 72 h, in %
[3] = test system: IGR37-GP cells (Dabrafenib-resistant); details: IGR37 GP, 72 h
[4] = test system: 501Mel-GP cells (Dabrafenib-resistant); details: 501Mel GP, 72 h, in %
IGR37 cells (parental) = details: IGR37 Parental, 72 h, in %
A375 cells (parental) = details: A375 Parental, 72 h
[5] = test system: A375-XP cells (Vemurafenib-resistant); details: A375 XP, 72 h
[6] = test system: A375-GP cells (Dabrafenib-resistant); details: A375 GP, 72 h

Row | Structure (SMILES) | Cell viability in kinase inhibitor library screening, 501Mel Parental, 10μΜ (501Mel cells (parental); 10μΜ) | Cell viability in kinase inhibitor library screening, IGR37 XP, 10μΜ ([1]; 10μΜ) | Cell viability in kinase inhibitor library screening, 501Mel XP, 1μΜ ([2]; 1μΜ) | Cell viability in kinase inhibitor library screening, 501Mel XP, 10μΜ ([2]; 10μΜ) | Cell viability in kinase inhibitor library screening, IGR37 GP, 10μΜ ([3]; 10μΜ) | Cell viability in kinase inhibitor library screening, IGR37 GP, 1μΜ ([3]; 1μΜ, in %) | Cell viability in kinase inhibitor library screening, 501Mel GP, 1μΜ ([4]; 1μΜ) | Cell viability in kinase inhibitor library screening, 501Mel GP, 10μΜ ([4]; 10μΜ) | Cell viability in kinase inhibitor library screening, IGR37 Parental, 1μΜ (IGR37 cells (parental); 1μΜ) | Cell viability in kinase inhibitor library screening, IGR37 Parental, 10μΜ (IGR37 cells (parental); 10μΜ) | Cell viability in kinase inhibitor library screening, A375 Parental, 1μΜ (A375 cells (parental); 1μΜ) | Cell viability in kinase inhibitor library screening, A375 XP, 1μΜ ([5]; 1μΜ) | Cell viability in kinase inhibitor library screening, A375 XP, 10μΜ ([5]; 10μΜ) | Cell viability in kinase inhibitor library screening, A375 GP, 10μΜ ([6]; 10μΜ) | further results
1 | CCC(=O)N1CCN(c2ccc(-n3c(=O)ccc4cnc5ccc(-c6cnc7ccccc7c6)cc5c43)cc2C(F)(F)F)CC1 [Torin 1] | 3.3 | 5.2% | 14.1 | 2.6 | 12.5% | 40.0 | 20.9 | 10.6 | 23.8 | 10.7 | 20.5 | 20.4 | 13.4 | 6.9 | Cell viability in kinase inhibitor library screening, 501Mel Parental, 1μΜ (501Mel cells (parental); 1μΜ): 15.1; Cell viability in kinase inhibitor library screening, IGR37 XP, 1μΜ ([1]; 1μΜ, in %): 30.3; Cell viability in kinase inhibitor library screening, A375 Parental, 10μΜ (A375 cells (parental); 10μΜ): 7.2; Cell viability in kinase inhibitor library screening, A375 GP, 1μΜ ([6]; 1μΜ): 22.1
2 | CN1CCN(c2nc(C3=C(c4c[nH]c5ccccc45)C(=O)NC3=O)c3ccccc3n2)CC1 [Sotrastaurin (AEB071)] | 95.7 | 78.1% | 96.4 | 77.9 | 89.1% | 96.8 | 105.7 | 91.8 | 108.5 | 95.3 | 108.3 | 102.8 | 96.9 | 88.5 | –
3 | O=C(NOCC1CC1)c1ccc(F)c(F)c1Nc1ccc(I)cc1Cl [CI-1040 (PD184352)] | – | – | – | – | – | – | – | – | – | – | – | – | – | – | cell viability, 501Mel Parental, 1μΜ (501Mel cells (parental); 1μΜ): 64.1; cell viability, 501Mel Parental, 10μΜ (501Mel cells (parental); 10μΜ): 50.2; cell viability, IGR37 XP, 10μΜ ([1]; 10μΜ): 26.4%; cell viability, IGR37 XP, 1μΜ ([1]; 1μΜ, in %): 81.9; cell viability, 501Mel XP, 1μΜ ([2]; 1μΜ): 81.0; cell viability, 501Mel XP, 10μΜ ([2]; 10μΜ): 46.4; cell viability, IGR37 GP, 10μΜ ([3]; 10μΜ): 55.9%; cell viability, IGR37 GP, 1μΜ ([3]; 1μΜ, in %): 84.8; cell viability, 501Mel GP, 1μΜ ([4]; 1μΜ): 98.8; cell viability, 501Mel GP, 10μΜ ([4]; 10μΜ): 56.0; cell viability, IGR37 Parental, 1μΜ (IGR37 cells (parental); 1μΜ): 43.0; cell viability, IGR37 Parental, 10μΜ (IGR37 cells (parental); 10μΜ): 35.8; cell viability, A375 Parental, 1μΜ (A375 cells (parental); 1μΜ, in %): 22.5; cell viability, A375 Parental, 10μΜ (A375 cells (parental); 10μΜ, in %): 21.5; cell viability, A375 XP, 1μΜ ([5]; 1μΜ, in %): 44.6; cell viability, A375 XP, 10μΜ ([5]; 10μΜ, in %): 12.9; cell viability, A375 GP, 1μΜ ([6]; 1μΜ, in %): 35.2; cell viability, A375 GP, 10μΜ ([6]; 10μΜ, in %): 16.8
